Assay results from patent EP1285920A1, “C10 Ester sustituted taxanes as antitumor agents” (Florida State University Research Foundation, Inc., priority 2001, dated 2003).

Test system: HCT116
Assay: In Vitro cytotoxicity measured by the cell colony formation assay
Assay type: cell-based, human
Conditions: Homo sapiens, HCT-116; read-out: IN VITRO ID 50 HCT116
Experimental: Four hundred cells (HCT116) were plated in 60 mm Petri dishes containing 2.7 mL of medium (modified McCoy's 5a medium containing 10% fetal bovine serum and 100 units/mL penicillin and […] streptomycin). The cells were incubated in a CO2 incubator at 37 °C for 5 h for attachment to the bottom of Petri dishes. The compounds identified in Example 2 were made up fresh in medium at ten times the final concentration, and then 0.3 mL of this stock solution was added to the 2.7 mL of medium in the dish. The cells were then incubated with drugs for 72 h at 37 °C. At the end of incubation the drug-containing media were decanted, the dishes were rinsed with 4 mL of Hank's Balance Salt Solution (HBSS), 5 mL of fresh medium was added, and the dishes were returned to the incubator for colony formation. The cell colonies were counted using a colony counter after incubation for 7 days.

Row | SMILES | IC50 [nM]
1 | CC(=O)O[C@@]12CO[C@@H]1C[C@H](O)[C@@]1(C)C(=O)[C@H](OC(=O)c3cccs3)C3=C(C)[C@@H](OC(=O)[C@H](O)[C@@H](NC(=O)OC(C)(C)C)c4ccco4)C[C@@](O)([C@@H](OC(=O)c4ccccc4)[C@H]21)C3(C)C [Compound 1892] | < 1
2 | CC(=O)O[C@@]12CO[C@@H]1C[C@H](O)[C@@]1(C)C(=O)[C@H](OC(=O)c3cccs3)C3=C(C)[C@@H](OC(=O)[C@H](O)[C@@H](NC(=O)OC(C)(C)C)c4cccs4)C[C@@](O)([C@@H](OC(=O)c4ccccc4)[C@H]21)C3(C)C [Compound 1900] | < 1
3 | CC(=O)O[C@@]12CO[C@@H]1C[C@H](O)[C@@]1(C)C(=O)[C@H](OC(=O)c3cccs3)C3=C(C)[C@@H](OC(=O)[C@H](O)[C@@H](NC(=O)OC(C)(C)C)c4ccc([N+](=O)[O-])cc4)C[C@@](O)([C@@H](OC(=O)c4ccccc4)[C@H]21)C3(C)C [Compound 1911] | < 10
4 | CC(=O)O[C@@]12CO[C@@H]1C[C@H](O)[C@@]1(C)C(=O)[C@H](OC(=O)c3cccs3)C3=C(C)[C@@H](OC(=O)[C@H](O)[C@@H](NC(=O)OC(C)(C)C)c4ccoc4)C[C@@](O)([C@@H](OC(=O)c4ccccc4)[C@H]21)C3(C)C [Compound 1923] | < 1
5 | CC(=O)O[C@@]12CO[C@@H]1C[C@H](O)[C@@]1(C)C(=O)[C@H](OC(=O)c3cccs3)C3=C(C)[C@@H](OC(=O)[C@H](O)[C@@H](NC(=O)OC(C)(C)C)c4ccsc4)C[C@@](O)([C@@H](OC(=O)c4ccccc4)[C@H]21)C3(C)C [Compound 1939] | < 1
6 | CC(=O)O[C@@]12CO[C@@H]1C[C@H](O)[C@@]1(C)C(=O)[C@H](OC(=O)c3cccs3)C3=C(C)[C@@H](OC(=O)[C@H](O)[C@@H](NC(=O)OC(C)(C)C)c4cccnc4)C[C@@](O)([C@@H](OC(=O)c4ccccc4)[C@H]21)C3(C)C [Compound 1948] | < 10
7 | CC(=O)O[C@@]12CO[C@@H]1C[C@H](O)[C@@]1(C)C(=O)[C@H](OC(=O)c3cccs3)C3=C(C)[C@@H](OC(=O)[C@H](O)[C@@H](NC(=O)OC(C)(C)C)c4ccncc4)C[C@@](O)([C@@H](OC(=O)c4ccccc4)[C@H]21)C3(C)C [Compound 1954] | < 1
8 | CC(=O)O[C@@]12CO[C@@H]1C[C@H](O)[C@@]1(C)C(=O)[C@H](OC(=O)c3cccs3)C3=C(C)[C@@H](OC(=O)[C@H](O)[C@@H](NC(=O)OC(C)(C)C)C(C)C)C[C@@](O)([C@@H](OC(=O)c4ccccc4)[C@H]21)C3(C)C [Compound 1964] | < 10
9 | CC(=O)O[C@@]12CO[C@@H]1C[C@H](O)[C@@]1(C)C(=O)[C@H](OC(=O)c3cccs3)C3=C(C)[C@@H](OC(=O)[C@H](O)[C@@H](NC(=O)OC(C)(C)C)C4CCC4)C[C@@](O)([C@@H](OC(=O)c4ccccc4)[C@H]21)C3(C)C [Compound 1970] | < 10
10 | CC(=O)O[C@@]12CO[C@@H]1C[C@H](O)[C@@]1(C)C(=O)[C@H](OC(=O)c3cccs3)C3=C(C)[C@@H](OC(=O)[C@H](O)[C@@H](NC(=O)OC(C)(C)C)c4ccccc4)C[C@@](O)([C@@H](OC(=O)c4ccccc4)[C@H]21)C3(C)C [Compound 1988] | < 10
11 | CC(=O)O[C@@]12CO[C@@H]1C[C@H](O)[C@@]1(C)C(=O)[C@H](OC(=O)c3ccco3)C3=C(C)[C@@H](OC(=O)[C@H](O)[C@H](C=C(C)C)NC(=O)OC(C)(C)C)C[C@@](O)([C@@H](OC(=O)c4ccccc4)[C@H]21)C3(C)C [Compound 2101] | < 1
12 | CC(=O)O[C@@]12CO[C@@H]1C[C@H](O)[C@@]1(C)C(=O)[C@H](OC(=O)c3ccco3)C3=C(C)[C@@H](OC(=O)[C@H](O)[C@@H](NC(=O)OC(C)(C)C)c4ccccn4)C[C@@](O)([C@@H](OC(=O)c4ccccc4)[C@H]21)C3(C)C [Compound 2111] | < 1
13 | CC(=O)O[C@@]12CO[C@@H]1C[C@H](O)[C@@]1(C)C(=O)[C@H](OC(=O)c3ccco3)C3=C(C)[C@@H](OC(=O)[C@H](O)[C@@H](NC(=O)OC(C)(C)C)c4cccnc4)C[C@@](O)([C@@H](OC(=O)c4ccccc4)[C@H]21)C3(C)C [Compound 2124] | < 10
14 | CC(=O)O[C@@]12CO[C@@H]1C[C@H](O)[C@@]1(C)C(=O)[C@H](OC(=O)c3ccco3)C3=C(C)[C@@H](OC(=O)[C@H](O)[C@@H](NC(=O)OC(C)(C)C)c4ccncc4)C[C@@](O)([C@@H](OC(=O)c4ccccc4)[C@H]21)C3(C)C [Compound 2132] | < 1
15 | CC(=O)O[C@@]12CO[C@@H]1C[C@H](O)[C@@]1(C)C(=O)[C@H](OC(=O)c3ccco3)C3=C(C)[C@@H](OC(=O)[C@H](O)[C@@H](NC(=O)OC(C)(C)C)c4ccco4)C[C@@](O)([C@@H](OC(=O)c4ccccc4)[C@H]21)C3(C)C [Compound 2142] | < 1
16 | CC(=O)O[C@@]12CO[C@@H]1C[C@H](O)[C@@]1(C)C(=O)[C@H](OC(=O)c3ccco3)C3=C(C)[C@@H](OC(=O)[C@H](O)[C@@H](NC(=O)OC(C)(C)C)c4ccoc4)C[C@@](O)([C@@H](OC(=O)c4ccccc4)[C@H]21)C3(C)C [Compound 2159] | < 1
17 | CC(=O)O[C@@]12CO[C@@H]1C[C@H](O)[C@@]1(C)C(=O)[C@H](OC(=O)c3ccco3)C3=C(C)[C@@H](OC(=O)[C@H](O)[C@@H](NC(=O)OC(C)(C)C)c4cccs4)C[C@@](O)([C@@H](OC(=O)c4ccccc4)[C@H]21)C3(C)C [Compound 2164] | < 1
18 | CC(=O)O[C@@]12CO[C@@H]1C[C@H](O)[C@@]1(C)C(=O)[C@H](OC(=O)c3ccco3)C3=C(C)[C@@H](OC(=O)[C@H](O)[C@@H](NC(=O)OC(C)(C)C)c4ccsc4)C[C@@](O)([C@@H](OC(=O)c4ccccc4)[C@H]21)C3(C)C [Compound 2173] | < 1
19 | CC(=O)O[C@@]12CO[C@@H]1C[C@H](O)[C@@]1(C)C(=O)[C@H](OC(=O)c3ccco3)C3=C(C)[C@@H](OC(=O)[C@H](O)[C@@H](NC(=O)OC(C)(C)C)C(C)C)C[C@@](O)([C@@H](OC(=O)c4ccccc4)[C@H]21)C3(C)C [Compound 2181] | < 10
20 | CC(=O)O[C@@]12CO[C@@H]1C[C@H](O)[C@@]1(C)C(=O)[C@H](OC(=O)c3ccco3)C3=C(C)[C@@H](OC(=O)[C@H](O)[C@@H](NC(=O)OC(C)(C)C)C4CCC4)C[C@@](O)([C@@H](OC(=O)c4ccccc4)[C@H]21)C3(C)C [Compound 2199] | < 10
21 | CC(=O)O[C@@]12CO[C@@H]1C[C@H](O)[C@@]1(C)C(=O)[C@H](OC(=O)c3ccco3)C3=C(C)[C@@H](OC(=O)[C@H](O)[C@@H](NC(=O)OC(C)(C)C)c4ccc([N+](=O)[O-])cc4)C[C@@](O)([C@@H](OC(=O)c4ccccc4)[C@H]21)C3(C)C [Compound 2202] | < 1
22 | CC(=O)OC12COC1CC(O)C1(C)C(=O)C(OC(=O)c3ccco3)C3=C(C)C(OC(=O)C(O)C(NC(=O)OC(C)(C)C)c4ccccc4)CC(O)(C(OC(=O)c4ccccc4)C21)C3(C)C (stereo not shown) [Compound 2212] | < 10
23 | CC(=O)OC12COC1CC(O)C1(C)C(=O)C(OC(=O)C(C)C)C3=C(C)C(OC(=O)C(O)C(C=C(C)C)NC(=O)OC(C)(C)C)CC(O)(C(OC(=O)c4ccccc4)C21)C3(C)C (stereo not shown) [Compound 2226] | < 1
24 | CC(=O)OC12COC1CC(O)C1(C)C(=O)C(OC(=O)C(C)C)C3=C(C)C(OC(=O)C(O)C(NC(=O)OC(C)(C)C)c4ccccn4)CC(O)(C(OC(=O)c4ccccc4)C21)C3(C)C (stereo not shown) [Compound 2238] | < 1
25 | CC(=O)OC12COC1CC(O)C1(C)C(=O)C(OC(=O)C(C)C)C3=C(C)C(OC(=O)C(O)C(NC(=O)OC(C)(C)C)c4cccnc4)CC(O)(C(OC(=O)c4ccccc4)C21)C3(C)C (stereo not shown) [Compound 2242] | < 10
